SMILES strings stand for the structures. Several values for one entry are separate records, joined by “and”; a condition that tells them apart may be missing. Identical values can stand only once.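 These data come from cells grown in 96-well plates and exposed to compound for 48 hours at five concentrations. Abbreviation: GI50, concentration required for 50% inhibition of growth. Definition used: TGI = concentration required for complete inhibition of growth.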 Where a SMILES comes first, the peptide text is derived from it. [ ]: non-standard residue; d: D form. The star is where a group is joined. NMeF = CN[C@@H](Cc1ccccc1)C(=O)O; NMeV = CN[C@H](C(=O)O)C(C)C; Boc = CC(C)(C)OC(=O)*; OBn = c1ccc(CO*)cc1

Among the test systems are MDA-N; LXFL 529 NSCLC; XF 498 CNS; SNB-78 CNS; DLD-1 colon; KM20L2 colon; DMS 114 small cell lung; DMS 273 small cell lung; RXF-631 renal.
What all share (assay): NCI anticancer screen, dose series, 48 h

`O=C(O)CP(=O)(O)O` displayed a TGI in the assay on MDA-N of over 100 µM.

In the case of `CC(=O)c1ccc(NC(=O)C(=O)C(C(=O)c2ccc(Cl)c(Cl)c2)C2OC(=O)c3ccccc32)cc1` (configuration not stated), the TGI is 32.8 µM in the assay on LXFL 529 NSCLC; over 100 µM in the assay with XF 498 CNS; over 100 µM in the assay with SNB-78 CNS; 55.8 µM in the assay on DLD-1 colon; over 100 µM with KM20L2 colon; 46.3 µM with DMS 114 small cell lung. For the same compound, the TGI in the assay on DMS 273 small cell lung worked out at 68.5 µM.

As for `COc1ccc(-c2cc(-c3cc(C)ccc3O)[nH]c(=O)n2)cc1`, the TGI with LXFL 529 NSCLC, in the assay with SNB-78 CNS, with DLD-1 colon, with KM20L2 colon, in the assay on DMS 114 small cell lung and with DMS 273 small cell lung was over 100 µM throughout. Further, the TGI in the assay on RXF-631 renal was over 100 µM.

Consider `Cc1ccc(C(=O)C#Cc2c[nH]c(=O)[nH]c2=O)cc1`, for which the TGI was 28.5 µM in the assay with SNB-78 CNS, 22.1 µM in the assay on DLD-1 colon and 38.6 µM in the assay on DMS 273 small cell lung.

Take `OCC1OC2OC3C(CO)OC(OC4C(CO)OC(OC5C(CO)OC(OC6C(CO)OC(OC7C(CO)OC(OC1C(O)C2O)C(O)C7O)C(O)C6O)C(O)C5O)C(O)C4O)C(O)C3O` (configuration not stated) (tested in a mixture with another compound): the TGI in the assay on MDA-N was 39.9 µM.

For the compound `CC(C)[C@@H](C(=O)N1CCC[C@H]1C(=O)OCc1ccccc1)N(C)C(=O)[C@H](C(C)C)N(C)C(=O)[C@H](Cc1ccccc1)N(C)C(=O)[C@H](NC(=O)OC(C)(C)C)C(C)C` (Boc-[dV][NMeF][NMeV][NMeV]P-OBn), the TGI with LXFL 529 NSCLC, with XF 498 CNS, with SNB-78 CNS, in the assay on DLD-1 colon, in the assay on KM20L2 colon and with DMS 114 small cell lung was over 100 µM each time. For the same compound, in the assay on DMS 273 small cell lung, the TGI was over 100 µM.

`COc1cc(Nc2nc3cc(C(F)(F)F)ccc3nc2-c2ccccc2)cc(OC)c1OC`: the TGI was over 100 µM in the assay with LXFL 529 NSCLC; 55.2 µM in the assay with XF 498 CNS; over 100 µM with SNB-78 CNS; over 100 µM in the assay with DLD-1 colon; over 100 µM in the assay with DMS 114 small cell lung; over 100 µM in the assay with DMS 273 small cell lung. The compound also yielded a TGI in the assay with RXF-631 renal of over 100 µM.

Compound `COC(=O)/C(=N\NC(=S)NN)C(C(=O)OC)C(=O)C(=O)Nc1cccc(C(F)(F)F)c1` (configuration not stated) showed a TGI in the assay on MDA-N of over 100 µM.

Take `COc1ccccc1C(N)c1ccccc1` (configuration not stated): the TGI with LXFL 529 NSCLC, in the assay on SNB-78 CNS, with DLD-1 colon, with KM20L2 colon, in the assay on DMS 114 small cell lung and in the assay with DMS 273 small cell lung was over 100 µM each time.

`c1ccc(CN2CCCCC(Sc3ccccc3)CC2)cc1` (configuration not stated): the TGI in the assay with LXFL 529 NSCLC is 32.6 µM; in the assay on SNB-78 CNS, 80.1 µM; in the assay with DLD-1 colon, 41.7 µM; in the assay on KM20L2 colon, 76.3 µM; in the assay on DMS 114 small cell lung, 44.6 µM; in the assay on DMS 273 small cell lung it was 25.1 µM.

Turning to `COC1OC(COS(=O)(=O)c2ccc(C)cc2)C(O)C(OS(=O)(=O)c2ccc(C)cc2)C1OS(=O)(=O)c1ccc(C)cc1` (configuration not stated), the TGI in the assay with LXFL 529 NSCLC, with SNB-78 CNS, with DLD-1 colon, with KM20L2 colon, with DMS 114 small cell lung and with DMS 273 small cell lung was over 100 µM in each case. The TGI with RXF-631 renal was over 100 µM.

On to `O=C1NC(c2c(Cl)cccc2Cl)Nc2ccccc21` (configuration not stated), for which the TGI in the assay with MDA-N turned out to be 70.5 µM.

`Cc1c(C(=O)/C=C/c2c(Cl)cccc2Cl)c(=O)n(-c2ccccc2)n1C`: the TGI in the assay on LXFL 529 NSCLC was 31.1 µM; with XF 498 CNS, 71 µM; in the assay with SNB-78 CNS, over 100 µM; in the assay with KM20L2 colon it was over 100 µM; in the assay with DMS 114 small cell lung, over 100 µM; with DMS 273 small cell lung it was 33.7 µM.

As to `COc1ccc(C(=O)CC(=O)C(=O)Nc2ccc(C)c(C)c2)cc1`, the TGI in the assay with LXFL 529 NSCLC is over 100 µM; in the assay on SNB-78 CNS, over 100 µM; in the assay with DLD-1 colon, over 100 µM; in the assay on KM20L2 colon, over 100 µM; with DMS 114 small cell lung, over 58.5 µM; with DMS 273 small cell lung, over 100 µM. This compound also returned a TGI in the assay with RXF-631 renal of over 100 µM.

In the case of `CCC(c1ccc2cc(O)ccc2c1)C(C)(C)C(=O)O` (configuration not stated), the TGI with MDA-N is over 100 µM.

On to `CC(C(=O)O)/C(=C\c1ccc2c(c1)OCO2)C(=O)O` (configuration not stated), for which the TGI in the assay on LXFL 529 NSCLC, in the assay on XF 498 CNS, in the assay with MDA-N, in the assay with DLD-1 colon, in the assay with KM20L2 colon and in the assay on DMS 114 small cell lung was over 100 µM each time. Further, the TGI with DMS 273 small cell lung and with RXF-631 renal was over 100 µM in each case.

Take `CC(=O)OC1CC2C(C)(C)C(=O)C=C[C@]2(C)C2CCC3(C)C(c4ccoc4)[C@@H](O)[C@H]4O[C@]43[C@]12C` (some centres not stated): the TGI with LXFL 529 NSCLC stood at 37 µM; in the assay with SNB-78 CNS it was 67.8 µM; with DLD-1 colon it was 41 µM; with KM20L2 colon, 33.4 µM; in the assay on DMS 114 small cell lung, 41.9 µM; in the assay with DMS 273 small cell lung it was 89.1 µM.

On to `NC(=O)Nc1c([N+](=O)[O-])cc(C(F)(F)F)cc1[N+](=O)[O-]`, for which the TGI in the assay on LXFL 529 NSCLC was over 100 µM; in the assay on XF 498 CNS it was over 100 µM; with SNB-78 CNS, over 100 µM; in the assay with KM20L2 colon, 80.6 µM; in the assay on DMS 273 small cell lung, over 100 µM; in the assay on RXF-631 renal, over 100 µM.

The compound `CCCCCCCCCCCCCCCCCC(=O)OCC(COC1OC(CS(=O)(=O)O)C(O)C(O)C1O)OC(=O)CCCCCCCCCCCCCCCCC` (configuration not stated) showed a TGI with MDA-N of over 100 µM.

For `O=C1OC(c2ccccc2)=N/C1=C\c1cc(Cl)ccc1Cl`, the TGI was 86 µM in the assay on LXFL 529 NSCLC; over 100 µM in the assay with SNB-78 CNS; over 100 µM with DLD-1 colon; over 100 µM in the assay on KM20L2 colon; over 100 µM with DMS 114 small cell lung; over 100 µM in the assay on RXF-631 renal.

`N#Cc1cc(N(CCCl)CCCl)c([N+](=O)[O-])cc1[N+](=O)[O-]` gave a TGI in the assay with MDA-N of over 100 µM.

As for `CCOC(=O)N[C@@H]1C2CC(=O)C(O2)[C@@H]1OC` (some centres not stated), the TGI in the assay with SNB-78 CNS, with DLD-1 colon and in the assay with KM20L2 colon was over 100 µM throughout.

Take `O=C(O)c1cccc2cccc(C(=O)O)c12.[Hg]`: the GI50 with LXFL 529 NSCLC was 14.6 µM; in the assay with DLD-1 colon it was 8.42 µM; with KM20L2 colon it was over 100 µM; in the assay on DMS 114 small cell lung, 3.8 µM; in the assay on DMS 273 small cell lung it was 15.4 µM. Also, the TGI is 28.1 µM in the assay with LXFL 529 NSCLC; 23 µM in the assay on DLD-1 colon; over 100 µM in the assay with KM20L2 colon; 21.5 µM with DMS 114 small cell lung; 31.4 µM in the assay with DMS 273 small cell lung.

`COC(=O)C(Cc1ccccc1)NC(=O)Cn1ccnc1[N+](=O)[O-]` (configuration not stated): the TGI in the assay on LXFL 529 NSCLC, with XF 498 CNS, in the assay with KM20L2 colon, in the assay on DMS 114 small cell lung, with DMS 273 small cell lung and in the assay with RXF-631 renal was over 100 µM throughout.

`COc1ccc(C(=O)C(C(=O)C(=O)NC2C3CC4CC(C3)CC2C4)c2ccc(OC)cc2)cc1` (configuration not stated): the TGI in the assay with LXFL 529 NSCLC, in the assay on SNB-78 CNS, in the assay on DLD-1 colon, in the assay with KM20L2 colon, with DMS 114 small cell lung and with DMS 273 small cell lung was over 100 µM in each case.

As for `CCCCCNC(=O)c1c(O)[nH]c(=S)[nH]c1=O`, the TGI in the assay on LXFL 529 NSCLC, in the assay on SNB-78 CNS, in the assay on KM20L2 colon, in the assay with DMS 114 small cell lung and in the assay on RXF-631 renal was over 100 µM throughout.

On to `CCCc1nc(NC#N)nc(C(=O)NC23CC4CC(CC(C4)C2)C3)c1C`, for which the TGI in the assay with LXFL 529 NSCLC, in the assay with SNB-78 CNS, in the assay on DLD-1 colon, in the assay with KM20L2 colon, in the assay with DMS 114 small cell lung and in the assay on DMS 273 small cell lung was over 100 µM in each case.

On to `CSc1nc(C)c(Br)c(=O)n1C1OC(COC(C)=O)C(OC(C)=O)C(OC(C)=O)C1OC(C)=O` (configuration not stated), for which the GI50 with LXFL 529 NSCLC was > 100 µM and 32.1 µM; in the assay on SNB-78 CNS, 17 µM and 63.6 µM; in the assay on DMS 114 small cell lung, > 100 µM and 25.5 µM. For the same compound, the TGI with LXFL 529 NSCLC is > 100 µM and 76.4 µM; in the assay with XF 498 CNS, 43.6 µM; in the assay on MDA-N it was over 100 µM; in the assay on SNB-78 CNS, 64.8 µM and > 100 µM; with DLD-1 colon it was over 100 µM; with KM20L2 colon, over 100 µM. The TGI with DMS 114 small cell lung was > 100 µM and 81 µM; with DMS 273 small cell lung, over 100 µM.

Consider `O=C1c2cc([N+](=O)[O-])cc3cc([N+](=O)[O-])cc(c23)C(=O)N1CCCNCCNCCCN1C(=O)c2cc([N+](=O)[O-])cc3cc([N+](=O)[O-])cc(c23)C1=O`, for which the TGI worked out at 0.326 µM in the assay on LXFL 529 NSCLC; 0.436 µM with XF 498 CNS; 1.14 µM in the assay with SNB-78 CNS; 3.24 µM in the assay on DLD-1 colon; 5.09 µM with KM20L2 colon; 1.38 µM in the assay on DMS 114 small cell lung. This compound also had a TGI in the assay on DMS 273 small cell lung of 0.42 µM.

On to `CC1=CC(=O)c2c(C=O)c(O)c(O)c(C(C)C)c2C1=O`, for which the TGI with LXFL 529 NSCLC was 41.4 µM; in the assay with XF 498 CNS, 43.9 µM; in the assay with SNB-78 CNS it was over 100 µM; with DLD-1 colon, over 68.4 µM; in the assay with KM20L2 colon it was over 100 µM; in the assay on DMS 114 small cell lung it was 51.5 µM. In the assay with DMS 273 small cell lung, this compound yielded a TGI of over 88.5 µM.

For the origin of these results see PubChem BioAssay (NCI).
